Reference: ChEMBL document CHEMBL1127762, “Five-membered heterocyclic amines as potential anti-rheumatoid arthritis agents” (Bioorg Med Chem Lett, 1994)

How the values were obtained:
Rattus norvegicus [1] = assay: Percent reduction in paw volume ([…], days 9-18) by 33 mg/kg p.o. in rats.; assay type: functional; settings: route oral
Rattus norvegicus [2] = assay: Improvement in joint mobility at 33 mg/kg p.o. in rat model of arthritis.; assay type: functional; settings: route oral
Rattus norvegicus [3] = assay: Percent reduction in paw volume (right primary lesion, days 0-8) by 33 mg/kg p.o. in rats.; assay type: functional; settings: route oral
Rattus norvegicus [4] = assay: Percent reduction in paw volume (right primary lesion, days 9-18) by 33 mg/kg p.o. in rats.; assay type: functional; settings: route oral
[5] = Partition coefficient (logP); settings: octanol/water
Rattus norvegicus [6] = assay: Antiarthritic activity by measuring percent reduction in paw volume in Sprague Dawley rat by peroral administration of 33 mg/kg; assay type: functional; settings: route oral
Rattus norvegicus [7] = assay: Antiarthritic activity by measuring % reduction in paw volume in Sprague Dawley rat, peroral administration of 10 mg/kg, volume change in the uninjected paw([…]) measured from day 9 to day 18; assay type: functional; settings: route oral

Structure (SMILES)	logP [5]	Reduction (Rattus norvegicus [1])	Reduction (Rattus norvegicus [2])	Reduction (Rattus norvegicus [3])	Reduction (Rattus norvegicus [4])	Reduction (Rattus norvegicus [6])	Reduction (Rattus norvegicus [7])
Nc1nc[nH]n1 [AMITROLE]		57%	26%	27	46%		
Nc1nc(-c2ncccn2)ns1	0.08	5%	30%	28%	31%		
Nc1nc(-c2ccc(Cl)cc2)ns1	2.83	46%	18%	20%	50%		
Nc1nc(-c2ccncc2)ns1	1.72	74%	33%	11%	20%		
Nc1nc(Cc2ccccc2)ns1	2.05	77%	36%	28%	42%		
Nc1nc(-c2cccnc2)ns1	1.58	49%	24%	15%	22%		
Nc1nc(-c2ccccn2)no1		66%	8%	24%	22%		
Nc1n[nH]c(-c2ccccn2)n1		60%	21%	3%	32%		
CC(C)(C)c1cc(-c2noc(N)n2)cc(C(C)(C)C)c1O	3.72	103%	89%	47%	56%		
Nc1nc(-c2cnccn2)ns1	0.52	24%	6%	10%	17%		
CC(=O)Nc1nc(-c2cc(C(C)(C)C)c(O)c(C(C)(C)C)c2)no1		79%	75%	80%	66%		
O=C(Nc1nc(-c2ccccc2)ns1)OCC(Cl)(Cl)Cl		68%	42%	50%	45%		
Nc1ncns1	0.66	106%	69%	45%	59%		
Nc1nc(-c2ccccc2)ns1		84%	13%	22%	51%		
C/C=C/C[C@@H](C)[C@@H](O)[C@H]1C(=O)N[C@@H](CC)C(=O)N(C)CC(=O)N(C)[C@@H](CC(C)C)C(=O)N[C@@H](C(C)C)C(=O)N(C)[C@@H](CC(C)C)C(=O)N[C@@H](C)C(=O)N[C@H](C)C(=O)N(C)[C@@H](CC(C)C)C(=O)N(C)[C@@H](CC(C)C)C(=O)N(C)[C@@H](C(C)C)C(=O)N1C [CYCLOSPORINE]				51%			77%

Further lines, with some results ahead:

logP [5]	Structure (SMILES)	Reduction (Rattus norvegicus [1])	Reduction (Rattus norvegicus [2])	Reduction (Rattus norvegicus [3])	Reduction (Rattus norvegicus [4])	Reduction (Rattus norvegicus [6])	Reduction (Rattus norvegicus [7])
1.78	CC(C)(C)c1nsc(N)n1	45%	28%	16%	30%		
1.77	Nc1nc(-c2cccs2)ns1	43%	7%	6%	25%		
1.05	Nc1nc(-c2ccccn2)ns1	65%	70%	8%	44%		
1.12	CCCc1nsc(N)n1	54%	47%	13%	40%		
0	Cc1nsc(N)n1	66%	84%	38%	50%		
1.78	CC(C)(C)c1ccc(-c2nsc(N)n2)cc1	6%	18%	27%		2%	
